The values that follow come from US8492515B2 (priority 2008, dated 2013).

Converted amounts (≈) assume the structure as drawn. Square brackets hold non-standard residues; d marks the D form. Peptide text beside a SMILES is read from it. Ac6c = NC1(C(=O)O)CCCCC1

The test concerns E. coli HK101. The following applies: quarter strength Mueller-Hinton broth, overnight, 37° C. The source says:
To investigate the activity of the A3-APO metabolites, Chex1-Arg20 single chain unit and an Arg7-Arg20 common cleavage fragment were synthesized and […], a true measure of potential clinical viability (Otvos et al., 2005. J. Med. Chem. 48: 5349-5359). The peptides of the invention were made on a CEM Liberty automated synthesizer with standard Fmoc-chemistry. The peptides were detached from the resin with the carboxyl terminus of the C-terminal Arg residue being in the form of an amino amide, —C(O)—NH2 (“Chex1-Arg20-NH2” and “Arg7-Arg20-NH2”), while still in the microwave chamber, and were purified by RP-HPLC. […] The biological studies carried out on chemically synthesized peptides in this example and succeeding examples were carried out on the C-terminal modified versions of the peptides wherein the C-terminal carboxylic acid function was in the form of an amide, —C(O)—NH2. […] The cell concentrations were estimated by measuring the ultraviolet absorbance at 600 nm and applying the formula cfu/mL=A600(3.8×10^8), where cfu is the number of colony-forming units. […] Cultures were then incubated at 37° C., 5% CO2 for 16-20 h without shaking, and growth inhibition was measured by recording the absorbance at 600 nm using a microplate reader. […]
Following the protocol of Example 2, minimal inhibitory concentrations of the Chex1-Arg20 peptide against selected bacteria was determined. […]

For `CC(C)C[C@H](NC(=O)[C@H](Cc1ccc(O)cc1)NC(=O)[C@@H]1CCCN1C(=O)[C@H](CCCNC(=N)N)NC(=O)[C@@H]1CCCN1C(=O)[C@H](CCCCN)NC(=O)[C@H](CC(=O)O)NC(=O)[C@@H]1CCCN1C(=O)[C@H](CCCNC(=N)N)NC(=O)C1(N)CCCCC1)C(=O)N1CCC[C@H]1C(=O)N[C@@H](CCCNC(=N)N)C(=O)N1CCC[C@H]1C(=O)N[C@@H](CCCNC(=N)N)C(=O)N1CCC[C@H]1C(=O)N1CCC[C@H]1C(=O)N[C@@H](CCCNC(=N)N)C(=O)N1CCC[C@H]1C(=O)N[C@H](C(=O)N[C@@H](CCCNC(=N)N)C(=O)O)C(C)C` [Chex1-Arg20, Chex-Arg-Pro-Asp-Lys-Pro-Arg-Pro-Tyr-Leu-Pro-Arg-Pro-Arg--Pro-Pro-Arg-Pro-Val-Arg] (H-[Ac6c]RPDKPRPYLPRPRPPRPVR-OH; N-terminus and C-terminus assumed), the “MIC, E. coli HK101” value turned out to be 0.5 µg/mL (≈ 0.202 µM).
